For series [1] the following is noted: evaluated by a test method based on OECD Test Guideline 406 in MSDS; cited from earlier work.
The test system of a further series is female mice. As to the kind of experiment: Skin sensitization test according to the LLNA (Local Lymph Node Assay), BrdU intake. It counts as in vivo. As to conditions: test substance 50.0 w/v % in acetone/olive oil 4/1, 25 μL/auricle once a day for three days; SI less than 3 = negative in skin sensitizing property. Here is the method: Stimulus index (SI) was measured by a skin sensitization test according to the LLNA (Local Lymph Node Assay) as follows.
As a positive control, α-hexyl cinnamaldehyde (HCA, product of Wako Pure Chemical Industries, Ltd.) was used.
As a medium, a mixture liquid of acetone (product of Wako Pure Chemical Industries, Ltd.) and olive oil (product of Fudimi Pharmaceutical Co., Ltd.) in a volume ratio of 4/1 was used.
Before treated with the test materials, the positive control, or the medium control, female mice were acclimated for 8 days including 6-day quarantine. No abnormalities were found in all the mice (used animals) during the quarantine/acclimation period.
Based on the body weights measured 2 days before the initiation of sensitization, they were categorized into 2 groups (4 mice/group) by the body weight stratified random sampling method so that the body weight of each individual was within ±20% of the average body weight of all the individuals. Each of the used animals was 8 weeks old to 9 weeks old at the time of the initiation of sensitization. […]
About 24 hours after the administration of BrdU, the used animals were allowed to undergo euthanasia, and their auricular lymph nodes were sampled. […] Also, the average of the weights of the auricular lymph nodes and the standard error thereof were calculated for each group. […]

The conditions of series [2]: evaluated by Maximization test method according to the document; cited from earlier work.
For series [3] the following is noted: risk phrase code R43 or H317; cited from earlier work.

Where two headings read alike, the source gives them in different places.

Consider `O=C(c1ccccc1)C1(O)CCCCC1` [1-Hydroxy-cyclohexyl phenyl ketone], for which the skin sensitizing property entry in series [1] was “None”.

Regarding `CCC(Cc1ccc(C)cc1)(C(=O)c1ccc(N2CCOCC2)cc1)N(C)C` (stereo not drawn) [2-Dimethylamino-2-(4-methylbenzyl)-1-(4-morpholine-4-yl-phenyl)butane-1-one], the skin sensitizing property entry in series [1] is “None”.

Turning to `C=C(C)C(=O)OCC(CO)OC(=O)C(=C)C` (stereo not drawn) [Glycerol dimethacrylate], the “SI measured by the LLNA test (stimulus index)” value in the series on female mice worked out at 1.2.

Regarding `C=C(C)C(=O)OCCCCCC` [n-Hexyl methacrylate], the skin sensitizing property result in series [2] is “Negative”.

For the compound `C=C(C)C(=O)OCCCCC` [n-Pentyl methacrylate], in series [2], the skin sensitizing property result was “Negative”.

`C=CC(=O)OC(C)(C)C` [t-Butyl acrylate]: in series [3], the skin sensitizing property result is on record as “Positive”.

Consider `C=C(C)C(=O)OC(C)(C)C` [t-Butyl methacrylate], for which the skin sensitizing property entry in series [2] is on record as “Negative”.

On to “Caprolactone-modified dipentaerythritol hexaacrylate”, for which the skin sensitizing property entry in series [1] is “Negative”.

In the case of “Tricyclodecane dimethanol dimethacrylate”, in the series on female mice, the “SI measured by the LLNA test (stimulus index)” value is reported as 1.3.
